The text below walks through data of US8481576B2 (Abbott GmbH & Co. KG, priority 2004, dated 2013).

Where a name gives a salt, the structure may show the parent alone. A value given as a limit tells only on which side of the number the result lay.

In the assay the target is T1, h5-HT5A receptor (Homo sapiens, UniProt P47898).
T1 construct: expressed in transfected cells; host or cells: HEK293
T1 sequence (P47898 whole entry): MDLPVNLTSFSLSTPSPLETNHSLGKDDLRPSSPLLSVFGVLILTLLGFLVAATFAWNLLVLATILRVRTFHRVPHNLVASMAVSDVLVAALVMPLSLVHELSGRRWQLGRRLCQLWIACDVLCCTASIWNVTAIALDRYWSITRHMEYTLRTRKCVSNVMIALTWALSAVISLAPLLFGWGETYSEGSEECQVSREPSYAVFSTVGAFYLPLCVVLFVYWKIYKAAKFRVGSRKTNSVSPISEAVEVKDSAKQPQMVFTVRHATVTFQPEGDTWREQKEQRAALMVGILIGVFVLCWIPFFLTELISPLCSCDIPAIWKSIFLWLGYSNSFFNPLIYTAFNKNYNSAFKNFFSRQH
Description: [3H]5-CT binding assay h5-HT5A. The settings on record: membranes from HEK293 cells expressing h5-HT5A, 2.5 nM [3H]5-CT; read-out: Binding affinity 5-HT5A (Ki). Here is the method: 1. [^3H]5-CT binding assay h5-HT5A
Membranes from HEK293-cells, which permanently express the h5-HT5A receptor gene, were incubated in 100 mM Tris-HCl-buffer (pH 7.7), containing 1 mM EDTA in the presence of 2.5 nM [^3H]5-CT (600 μl total volume). The total binding is defined as the binding which is observed when the membranes are incubated alone in the presence of the radioligand. The inhibition induced by the compound is determined by incubation of cell membranes in the presence of the radioligand, and of different concentrations of the compound of interest. Unspecific binding is defined by the binding of [^3H]5-CT, which is obtained by incubation of the membranes as for the total binding but in the presence of 10 μM methiothepine. Following an incubation of 75 minutes at 30° C. the membrane suspension is filtered through GF/B-filters, wrapped in 0.03% PEI, wherein a Skatron® harvest system is used. The radioactivity retained in the filter is quantified by liquid scintillation counting.
In both assays, different concentrations of the test substances are used, and the Ki or the IC50 values are determined.
`COc1cccc(OC)c1CNC(=N)Nc1ncc(-c2ccccc2)s1` [Example 66, N-(2,6-dimethoxybenzyl)-M-(5-phenyl-1,3-thiazole-2-yl)guanidine hydrobromide]: the Ki is under 50 nM. For the molecule `COc1cccc(OC)c1CNC(=N)Nc1nc(-c2cc3ccccc3o2)cs1` [Example 67, N-[4-(1-benzofuran-2-yl)-1,3-thiazole-2-yl]-N′-(2,6-dimethoxybenzyl)guanidine hydrobromide], the Ki is under 50 nM. Regarding `COc1cccc(OC)c1CNC(=N)Nc1nc(-c2cc(F)cc(F)c2)cs1` [Example 68, N-[4-(3,5-difluorophenyl)-1,3-thiazole-2-yl]-N′-(2,6-dimethoxybenzyl)guanidine hydrobromide], the Ki was under 50 nM. For the molecule `COc1cccc(OC)c1CNC(=N)Nc1nc(-c2ccc3c(c2)OCO3)cs1` [Example 69, N-[4-(1,3-benzodioxol-5-yl)-1,3-thiazole-2-yl]-N′-(2,6-dimethoxybenzyl)guanidine hydrobromide], the Ki is under 50 nM.

With `COc1cccc(OC)c1CNC(=N)Nc1nc(-c2ccccc2F)cs1` [Example 70, N-(2,6-dimethoxybenzyl)-N′-[4-(2-fluorophenyl)-1,3-thiazole-2-yl]guanidine hydrobromide], the Ki is under 50 nM. For `COc1cccc(OC)c1CNC(=N)Nc1nc(-c2ccc(NS(C)(=O)=O)cc2)cs1` [Example 71, N-[4-(2-{[[(2,6-dimethoxybenzyl)amino](imino)methyl]amino}-1,3-thiazole-4-yl)phenyl]methanesulfonamide hydrobromide], the Ki was under 50 nM.

For `COc1cccc(OC)c1CNC(=N)Nc1nc(-c2ccsc2)cs1` [Example 72, N-(2,6-dimethoxybenzyl)-N′-[4-(3-thienyl)-1,3-thiazole-2-yl]guanidine acetate], the Ki is under 50 nM.

For `COc1cccc(OC)c1CNC(=N)Nc1nc(-c2cccc(F)c2)cs1` [Example 73, N-(2,6-dimethoxybenzyl)-N′-[4-(3-fluorophenyl)-1,3-thiazole-2-yl]guanidine hydrobromide], the Ki is under 50 nM. Take `COc1cccc(OC)c1CNC(=N)Nc1nc(-c2ccc(-c3ccccc3)cc2)cs1` [Example 74, N-(4-biphenyl-4-yl-1,3-thiazole-2-yl)-N′-(2,6-dimethoxybenzyl)guanidine hydrobromide]: the Ki is under 50 nM.

`COc1ccccc1-c1csc(NC(=N)NCc2c(OC)cccc2OC)n1` [Example 75, N-(2,6-dimethoxybenzyl)-N′-[4-(2-methoxyphenyl)-1,3-thiazole-2-yl]guanidine hydrobromide]: the Ki was under 50 nM.

Consider `COc1cccc(OC)c1CNC(=N)Nc1nc(C(c2ccccc2)c2ccccc2)cs1` [Example 76, N-(2,6-dimethoxybenzyl)-N′-[4-(diphenylmethyl)-1,3-thiazole-2-yl]guanidine hydrobromide], for which the Ki was under 50 nM. For `COc1cccc(OC)c1CNC(=N)Nc1nc(-c2ccc(Cl)s2)cs1` [Example 77, N-[4-(5-chloro-2-thienyl)-1,3-thiazole-2-yl]-N′-(2,6-dimethoxybenzyl)guanidine hydrobromide] the value was under 50 nM; for `COc1cccc(OC)c1CNC(=N)Nc1nc2c(s1)Cc1ccccc1-2` [Example 80, N-(2,6-dimethoxybenzyl)-N′-8H-indeno[1,2-d][1,3]thiazole-2-ylguanidine hydrobromide], under 50 nM; for `COc1cccc(OC)c1CNC(=N)Nc1nc(-c2ccc(S(C)(=O)=O)cc2)cs1` [Example 82, N-(2,6-dimethoxybenzyl)-N′-{4-[4-(methylsulfonyl)phenyl]-1,3-thiazole-2-yl}guanidine hydrobromide], 50 to 500 nM. For `COc1cccc(OC)c1CNC(=N)Nc1nc(-c2cc(-c3ccccc3)no2)cs1` [Example 83, N-(2,6-dimethoxybenzyl)-N′-[4-(3-phenylisoxazole-5-yl)-1,3-thiazole-2-yl]guanidine hydrobromide], the Ki was under 50 nM. `COc1cccc(OC)c1CNC(=N)Nc1nc(-c2ccccc2C(F)(F)F)cs1` [Example 84, N-(2,6-dimethoxybenzyl)-N′-{4-[2-(trifluoromethyl)phenyl]-1,3-thiazole-2-yl}guanidine hydrobromide]: the Ki was under 50 nM.

As for `COc1cccc(OC)c1CNC(=N)Nc1nc(C23CC4CC(CC(C4)C2)C3)cs1` [Example 85, N-[4-(1-adamantyl)-1,3-thiazole-2-yl]-N′-(2,6-dimethoxybenzyl)guanidine hydrobromide], the Ki was under 50 nM. For `COc1cccc(F)c1CNC(=N)Nc1nc(C)cs1` [Example 86, N-(2-fluoro-6-methoxybenzyl)-N′-(4-methyl-1,3-thiazole-2-yl)guanidine], the Ki is under 50 nM. Regarding `COc1cccc(OC)c1CNC(=N)Nc1nc(-c2ccc(F)c(F)c2)cs1` [Example 87, N-[4-(3,4-difluorophenyl)-1,3-thiazole-2-yl]-N′-(2,6-dimethoxybenzyl)guanidine hydrobromide], the Ki is under 50 nM. As for `COc1cccc(OC)c1CNC(=N)Nc1nc(-c2nc3ccccc3s2)cs1` [Example 88, N-[4-(1,3-benzothiazole-2-yl)-1,3-thiazole-2-yl]-N′-(2,6-dimethoxybenzyl)guanidine hydrobromide], the Ki was under 50 nM. With `COc1cccc(OC)c1CNC(=N)Nc1nc(-c2cccc(Cl)c2)cs1` [Example 89, N-[4-(3-chlorophenyl)-1,3-thiazole-2-yl]-N′-(2,6-dimethoxybenzyl)guanidine hydrobromide], the Ki was under 50 nM. As for `COc1cccc(OC)c1CNC(=N)Nc1nc(-c2cccs2)cs1` [Example 90, N-(2,6-dimethoxybenzyl)-N′-[4-(2-thienyl)-1,3-thiazole-2-yl]guanidine hydrobromide], the Ki is under 50 nM. Regarding `COc1cccc(OC)c1CNC(=N)Nc1nc(-c2ccc(F)cc2F)cs1` [Example 91, N-[4-(2,4-difluorophenyl)-1,3-thiazole-2-yl]-N′-(2,6-dimethoxybenzyl)guanidine hydrobromide], the Ki is under 50 nM.

`COc1ccccc1CNC(=N)Nc1nc2ccccc2n1C` [Example 92, N-(2-methoxybenzyl)-N′-(1-methyl-1H-benzimidazole-2-yl)guanidine]: the Ki lay in the range of 50 to 500 nM. As to `COc1ccccc1CNC(=N)Nc1nc2ccccc2[nH]1` [Example 93, N-1H-benzimidazole-2-yl-N′-(2-methoxybenzyl)guanidine acetate], the Ki is under 50 nM.

Regarding `COc1cccc(OC)c1CNC(=N)Nc1nc2c(s1)CCCC2` [Example 94, N-(2,6-dimethoxybenzyl)-N′-(4,5,6,7-tetrahydro-1,3-benzothiazole-2-yl)guanidine acetate], the Ki is under 50 nM. With `COc1cccc(OC)c1CNC(=N)Nc1nc(-c2ccc(C(C)C)cc2)cs1` [Example 95, N-(2,6-dimethoxybenzyl)-N′-[4-(4-isopropylphenyl)-1,3-thiazole-2-yl]guanidine], the inhibition constant (Ki) was 50 to 500 nM. In the case of `COc1cccc(OC)c1CNC(=N)Nc1nc(-c2csc3ccccc23)cs1` [Example 96, N-[4-(1-benzothiene-3-yl)-1,3-thiazole-2-yl]-N′-(2,6-dimethoxybenzyl)guanidine hydrobromide], the inhibition constant (Ki) was under 50 nM. Turning to `COc1cccc(OC)c1CNC(=N)Nc1nc(C2CCCCC2)cs1` [Example 97, N-(4-cyclohexyl-1,3-thiazole-2-yl)-N′-(2,6-dimethoxybenzyl)guanidine], the Ki is under 50 nM. As to `COc1ccccc1CNC(=N)Nc1nc(-c2ccccc2F)cs1` [Example 98, N-[4-(2-fluorophenyl)-1,3-thiazole-2-yl]-N′-(2-methoxybenzyl)guanidine], the Ki is 50 to 500 nM. Consider `COc1ccccc1CNC(=N)Nc1nc(-c2cccc(F)c2)cs1` [Example 99, N-[4-(3-fluorophenyl)-1,3-thiazole-2-yl]-N′-(2-methoxybenzyl)guanidine], for which the Ki was 50 to 500 nM. `COc1ccccc1CNC(=N)Nc1nc(-c2ccc(OC(F)(F)F)cc2)cs1` [Example 100, N-(2-methoxybenzyl)-N′-{4-[4-(trifluoromethoxy)phenyl]-1,3-thiazole-2-yl}guanidine]: the Ki was under 50 nM. The figure for `COc1ccccc1CNC(=N)Nc1nc(-c2ccc3c(c2)OCO3)cs1` [Example 101, N-[4-(1,3-benzodioxol-5-yl)-1,3-thiazole-2-yl]-N′-(2-methoxybenzyl)guanidine] is 50 to 500 nM; for `COc1cccc(OC)c1CNC(=N)Nc1nc(C)c(C(=O)N(C)C)s1` [Example 102, 2-{[[(2,6-dimethoxybenzyl)amino](imino)methyl]amino}-N,N,4-trimethyl-1,3-thiazole-5-carboxamide] it is under 50 nM.

For `COc1ccccc1CNC(=N)Nc1nc(-c2ccccc2C(F)(F)F)cs1` [Example 103, N-(2-methoxybenzyl)-N′-{4-[2-(trifluoromethyl)phenyl]-1,3-thiazole-2-yl}guanidine], the Ki was 50 to 500 nM. Take `COc1ccccc1CNC(=N)Nc1nc(-c2ccc(NS(C)(=O)=O)cc2)cs1` [Example 104, N-{4-[2-({imino[(2-methoxybenzyl)amino]methyl}amino)-1,3-thiazole-4-yl]phenyl}methanesulfonamide]: the Ki was over 500 nM. In the case of `COc1cccc(OC)c1CNC(=N)Nc1nc(-c2ccccc2)ns1` [Example 105, N′-(2,6-dimethoxybenzyl)-N-(3-phenyl-1,2,4-thiadiazole-5-yl)guanidine×0.5 (2E)-But-2-endioate], the Ki was over 500 nM.

In general, Ki refers to a dissociation constant, usually derived from enzyme kinetics or from competition with a known ligand.
